{
  "source": "patent US5527773A",
  "about": "“Use of synthetic peptides to disrupt the cytoskeleton” (United States of America, priority 1993, dated 1996)",
  "key": {"preformed keratin IFs": {"tested_on": "preformed keratin IFs", "assay": "Disassembly of preformed keratin IFs by synthetic peptides (light scattering, electron microscopy)", "type": "biochemical, human", "experimental": "In vitro filament assembly assays (1-1.5 mg/ml) were performed by dialysis for 2 hours each into decreasing concentrations of urea (6, 4, 2, 1 and 0M) containing 5 mM Tris-HCl, pH 7.6, 1 mM EDTA, 1 mM dithiothreitol. […]. Light scattering was measured at 310 nm in a Beckman DU65 spectrophotometer. Synthetic peptides (1-30 μl of a 0.5-2 mg/ml solution) were added to 1 ml samples of keratin filaments, incubated at 37° C., and filament assembly was measured by light scattering. […] Samples of these reactions were also collected for visualization by electron microscopy and stopped by negative staining with freshly-prepared 0.7% uranyl acetate.\nPeptides corresponding to the H1, beginning of 1A, and full-length 1A regions (SEQ ID NO: 1-3) of the human keratin 1 chain were individually mixed with preformed keratin IFs in vitro at a 1:1 molar ratio."}, "[1]": {"tested_on": "keratin and vimentin/desmin IF networks in PtK2, BHK21 and mouse 3T3 fibroblasts", "assay": "Microinjection of the 1A peptide into cells, indirect immunofluorescence and confocal microscopy", "type": "cell-based, kangaroo rat, baby hamster", "experimental": "The synthetic peptide corresponding to the keratin 1 chain 1A region (SEQ ID NO: 2) was microinjected into PtK2, BHK21 and mouse 3T3 fibroblasts according to the procedure of Vikstrom et al. (Proc. Natl. Acad. Sci. U.S.A., (1989) 86: 549-553; Methods Enzymol., (1991) 176: 506-525). BHK-21 cells contain type III filaments composed of vimentin and desmin, while 3T3 cells contain only vimentin. PtK2 cells contain mainly keratin. Briefly, peptides in 20 mM Tris-HCl. pH 8.5, 0.17M NaCl, 3 mM KCl were clarified by centrifugation for 30 min at 100,000×g immediately prior to microinjection. Protein concentrations in samples were determined by the method of Bradford (Anal. Biochem., 72: 248-254 (1976)). Micropipettes (W-P instruments) were prepared on a micropipette puller (Industrial Science Associates). Microinjections were monitored with a Leitz Diavert phase-contrast microscope fitted with a Leitz micromanipulator according to standard techniques (Graessmann and Graessmann, (1976) Proc. Natl. Acad. Sci. U.S.A., 73: 366-370; Kreis and Birchmeier, (1982) Int. Rev. Cytol., 75: 209-227).\n(§1) Microinjected cells were prepared for indirect immunofluorescence and confocal microscopy as described (Yang et al., (1985) J. Cell Biol., 100: 620-631). IF disassembly was assessed by immunofluorescence using antibodies against IFs. […] At 1 mg/ml peptide, cells rounded up completely within 30 min, respreading and regaining their shape after a few hours. […] The rounded-up cells contained spots of fluorescence indicating a rather complete disruption of IF structure. Recovery occurred within 3-4 hours indicating a need to maintain a constant supply of peptide to maintain the disassembled state of the IF network. The 1A peptide was soluble at 5-10 mg/ml, although higher concentrations may also be obtainable."}, "[2]": {"assay": "Solubility of the peptide", "type": "physicochemical", "experimental": "as §1"}},
  "data": [
    {"substance": "1A*: the first 18 amino acids of SEQ ID NO: 2 (1A peptide) (REQIKSLNNQFASFIDKV)", "values": [
      {"measurement": "reversibility of disassembly", "setting": "preformed keratin IFs; 1:1 molar ratio", "value": "reversible upon removal of the peptide"},
      {"measurement": "time to disassembly of preformed IFs down to single coiled-coil molecules", "setting": "preformed keratin IFs; 1:1 molar ratio peptide to preformed keratin IFs, light scattering and electron microscopy", "value": "≤ 30", "unit": "min"},
      {"measurement": "IF structure by immunofluorescence during rounding", "setting": "[1]; 1 mg/ml peptide", "value": "disorganized arrays of IFs"},
      {"measurement": "time to complete rounding up of cells", "setting": "[1]; 1 mg/ml peptide", "value": "≤ 30", "unit": "min"},
      {"measurement": "alteration of IF networks", "setting": "[1]; 2-5 mg/ml peptide", "value": "very significant alterations in both the keratin and vimentin/desmin IF networks"},
      {"measurement": "time to recovery", "setting": "[1]; 2-5 mg/ml peptide", "value": "3 to 4", "unit": "h"},
      {"measurement": "overall cell shape", "setting": "[1]; about 0.5 mg/ml peptide microinjected, after 15-20 min", "value": "altered slightly due to the partial rounding up"},
      {"measurement": "overall IF structure by immunofluorescence", "setting": "[1]; about 0.5 mg/ml peptide, 30 min post-injection", "value": "no significant changes in overall IF structure"},
      {"measurement": "solubility", "setting": "[2]", "value": "5 to 10", "unit": "mg/mL"}
    ]}
  ]
}
